Reference: BindingDB's records for doi:10.1016/j.bmc.2007.01.021 (Polish Academy of Sciences, 2007)

molecular target: Thymidylate synthase (Mus musculus, UniProt P07607); experiment: Inhibition of mouse thymidylate synthase in mouse L1210 cells
Sequence (P07607 whole entry): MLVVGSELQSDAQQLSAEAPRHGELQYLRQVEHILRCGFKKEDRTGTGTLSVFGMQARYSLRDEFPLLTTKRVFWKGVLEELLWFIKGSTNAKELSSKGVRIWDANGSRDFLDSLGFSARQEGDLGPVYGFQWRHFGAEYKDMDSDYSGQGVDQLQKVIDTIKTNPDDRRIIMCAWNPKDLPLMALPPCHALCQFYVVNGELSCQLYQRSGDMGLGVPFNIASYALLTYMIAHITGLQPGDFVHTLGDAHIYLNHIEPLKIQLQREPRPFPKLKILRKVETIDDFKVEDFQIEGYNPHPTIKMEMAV

| Ki [µM] | SMILES |
| --- | --- |
| 0.00812 | CCCc1cn([C@H]2C[C@H](O)[C@@H](OP(=O)(O)O)O2)c(=O)[nH]c1=O |
| 0.0281 | CCc1cn([C@H]2C[C@H](O)[C@@H](OP(=O)(O)O)O2)c(=O)[nH]c1=O |
| 0.128 | O=c1[nH]c(=O)n([C@H]2C[C@H](O)[C@@H](OP(=O)(O)O)O2)cc1I |
| 0.00257 | O=c1[nH]c(=O)n([C@H]2C[C@H](O)[C@@H](OP(=O)(O)O)O2)cc1[N+](=O)[O-] |
| 0.66 | O=c1[nH]c(=O)n([C@H]2C[C@H](O)[C@@H](OP(=O)(O)O)O2)cc1Br |
| 0.269 | O=c1[nH]c(=O)n([C@H]2C[C@H](O)[C@@H](OP(=O)(O)O)O2)cc1CO |
| 0.138 | Cc1cn([C@H]2C[C@H](O)[C@@H](OP(=O)(O)O)O2)c(=O)[nH]c1=O |
| 0.309 | O=c1[nH]c(=O)n([C@H]2C[C@H](O)[C@@H](OP(=O)(O)O)O2)cc1O |
